# In patent publication US11337944B2, “Method of treating colorectal cancers using a PKC inhibitor” (UNIVERSITY OF SOUTH FLORIDA, priority 2016, dated 2022):
# Entries after “also recorded” stand apart in the source; their conditions may differ. Like-named read-outs stand apart in the source and are kept apart here.
# Tests used:
# [1] = tested on: HT-29 colon cancer cell line; test: HT-29 colon cancer cell proliferation, viable cell count (Tryphan blue exclusion, scepter); format: cell-based; details: for HT-29 cell proliferation at 0.25 μM / HT-29 cell proliferation at 1.5 μM: after three days of treatment; for effect on HT-29 cell proliferation with concentration: 24-72 hours, several concentrations; for IC50: HT-29, three days of treatment, read-out: decrease of growth of HT-29 cells by 50 percent (IC50)
# Protocol: (§1) The colon cancerous cell line, HT-29 and normal colon epithelial cells, CCD18CO were obtained from American Type Tissue Culture Collection. The HT-29 cells and CCD18CO cells were subculture and maintained in T75 flasks containing McCoy's media and Eagle's Minimum Essential Media respectively, both of the flasks were supplemented with 10% FBS (Fetal Bovine Serum) and 1% antibiotics (Penicillin 10 U/ml and streptomycin 10 mg/ml). Cells were incubated at 37° C. and 5% CO2. After few days of incubation following subculture, cells were used at 70-80% confluency for the experiment.
# Cells (3.0×10^4/well) were grown as monolayer on 6 wells plate. […] Cells are then washed (2 ml 2× DPBS buffer), trypsinized, resuspended in McCoy's 5A media and counted with hemocytometer, Scepter & MTT assay.
# After starting treatment, viable cells were counted at each 24 hours interval using Tryphan blue exclusion assay and scepter. The data represents n=4 independent experiments.
# HT-29 cells were treated with five different concentrations of DNDA for 24-72 hours. After starting treatment, viable cells were counted at each 24 hours interval using Tryphan blue exclusion assay and scepter. The data represents n=4 independent experiments.
# HT-29 cells were treated with five different concentrations of ICA-1 for 24-72 hours. After starting treatment, viable cells were counted at each 24 hours interval using Tryphan blue exclusion assay and scepter. The data represents n=4 independent experiments.
# HT-29 cells were treated with four different concentrations of ζ-Stat for 24-72 hours. After starting treatment, viable cells were counted at each 24 hours interval using Tryphan blue exclusion assay and scepter. The data represents n=4 independent experiments.
# PKC-ζ [2] = biological target: T1, PKC-ζ (Homo sapiens, UniProt Q05513); details: cited from earlier work
# T1 construct: harvested and whole cell extracts were prepared; endogenous in cells; host or cells: HT-29
# T1 sequence (Q05513 1-592): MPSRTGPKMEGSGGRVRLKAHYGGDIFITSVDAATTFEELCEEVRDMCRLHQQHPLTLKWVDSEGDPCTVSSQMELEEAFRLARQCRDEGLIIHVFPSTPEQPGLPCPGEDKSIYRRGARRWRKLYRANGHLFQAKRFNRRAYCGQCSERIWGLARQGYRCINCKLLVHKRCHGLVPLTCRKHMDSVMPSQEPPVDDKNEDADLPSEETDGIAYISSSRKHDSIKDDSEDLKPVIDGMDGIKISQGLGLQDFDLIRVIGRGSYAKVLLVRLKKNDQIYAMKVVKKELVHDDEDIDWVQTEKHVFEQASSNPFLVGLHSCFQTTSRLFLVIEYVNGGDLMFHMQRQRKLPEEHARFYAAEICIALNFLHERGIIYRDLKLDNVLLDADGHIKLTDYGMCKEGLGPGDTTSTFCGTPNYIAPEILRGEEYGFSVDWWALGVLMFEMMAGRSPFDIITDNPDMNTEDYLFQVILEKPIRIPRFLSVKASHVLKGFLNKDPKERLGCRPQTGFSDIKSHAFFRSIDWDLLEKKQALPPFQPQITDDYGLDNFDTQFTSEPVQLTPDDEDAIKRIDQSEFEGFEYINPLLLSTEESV
# PKC-ι [3] = biological target: T2, PKC-ι (Homo sapiens, UniProt P41743); details: cited from earlier work
# T2 construct: harvested and whole cell extracts were prepared; endogenous in cells; host or cells: HT-29
# T2 sequence (P41743 1-596): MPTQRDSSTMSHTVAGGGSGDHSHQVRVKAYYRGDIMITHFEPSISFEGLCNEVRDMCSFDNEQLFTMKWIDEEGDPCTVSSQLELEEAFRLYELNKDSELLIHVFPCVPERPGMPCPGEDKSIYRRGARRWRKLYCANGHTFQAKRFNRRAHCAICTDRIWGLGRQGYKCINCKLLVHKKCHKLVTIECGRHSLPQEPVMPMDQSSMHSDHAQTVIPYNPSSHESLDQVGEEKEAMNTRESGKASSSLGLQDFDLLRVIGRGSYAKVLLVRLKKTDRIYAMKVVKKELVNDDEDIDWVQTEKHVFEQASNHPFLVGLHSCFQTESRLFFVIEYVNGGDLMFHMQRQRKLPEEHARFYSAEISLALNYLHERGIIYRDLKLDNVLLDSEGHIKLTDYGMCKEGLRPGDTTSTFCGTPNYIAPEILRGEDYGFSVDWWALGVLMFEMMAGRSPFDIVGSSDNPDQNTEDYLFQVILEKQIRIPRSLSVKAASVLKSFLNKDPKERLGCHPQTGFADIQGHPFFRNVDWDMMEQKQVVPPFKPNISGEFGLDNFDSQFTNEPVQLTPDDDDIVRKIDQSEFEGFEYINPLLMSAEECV
# [4] = tested on: CCD18CO normal colorectal cells; test: Western blot of survival and apoptotic proteins in CCD18CO normal cells; format: cell-based; details: 7 μM, 72 hours, immunoblot
# Protocol: CCD18CO cells were treated with 7 μM ICA-I or 7 μM ζ-Stat, respectively, for 72 hours, harvested and whole cell lysates were prepared. Equal amounts (40 μg) of protein were loaded on SDS-PAGE followed by immunoblotting for PKC-ι, PKC-ζ, Caspase-3, BCL-XL, and β-actin to see the effect of specific aPKC inhibition on survival and apoptotic proteins. Data represents n=3 independent experiments.
# [5] = tested on: HT-29 colorectal cancer cells; test: Western blot of survival and apoptotic proteins (Caspase-3, BCL-XL, Survivin) in HT-29 cells; format: cell-based; details: HT-29, 7 μM, 72 hours, immunoblot
# Protocol: HT-29 colorectal cancer cells were treated with 7 μM ICA-I or 7 μM ζ-Stat for 72 hours, harvested and whole cell lysates were prepared. Equal amounts (40 μg) of protein were loaded on SDS-PAGE followed by immunoblotting for Caspase-3, BCL-XL, Survivin and β-actin to determine the effects of specific aPKC inhibition on survival and apoptotic proteins. Data represents n=3 independent experiments.
# [6] = tested on: CCD18CO normal colon epithelial cell line; test: MTT assay on CCD18CO normal colon epithelial cells; format: cell-based
# Protocol: as §1
# To establish the efficacy of ζ-Stat as a specific inhibitor of PKC-ζ, the effect of ζ-Stat on CCD18CO normal colon epithelial cell line was tested. CCD18CO normal epithelial cell line cells were treated with four different concentrations of ζ-Stat for three consecutive days followed by incubation with MTT reagent and taking absorbance reading at each half an hour interval for three hours at 577 nm using microplate reader. The data represents n=3 independent experiments.
# The percentage of inhibition of CCD18C0 cell growth was measured after three hours of MTT incubation. […] The data represents n=3 independent replicates (FIG. 19).
# PKC-ι [7] = biological target: T2, PKC-ι; test: Western blot of PKC-ι expression and phosphorylation in HT-29 cells; format: cell-based; details: HT-29, 72 hours, increasing concentrations, immunoblot
# Protocol: (§2) Cells were cultured (9.0×10^4) in 100 mm cell culture flasks. […] Equal volume of sterile water (vehicle control) as the volume of drug was added in the control also. Treatment was continued for three consecutive days. Total cell-lysates were prepared and subjected to western blot analysis for aPKC analysis.
# (§3) Because PKC-ι and PKC-ζ are homologous (84%) in terms of amino acids sequence of their catalytic domain [7], the specificity of the effect of ζ-Stat on PKC-ζ was tested by performing western blot analysis. HT-29 colorectal cancerous cells were treated with seven different concentrations of ζ-Stat for 72 hours, harvested and whole cell extracts were prepared. Equal amounts (40 μg) of protein were loaded on SDS-PAGE followed by immunoblotting for pPKC-ι(T555), PKC-ι, pPKC-ζ(T410), PKC-ζ, pAKT(S473) and β-actin to examine the effect of ζ-Stat on those protein levels. Data represents n=3 independent observations.
# PKC-ζ [8] = biological target: T1, PKC-ζ; test: Western blot of PKC-ζ expression and phosphorylation in HT-29 cells; format: cell-based; details: HT-29, 72 hours, increasing concentrations, immunoblot
# Protocol: as §2, §3
SMILES,HT-29 cell proliferation at 0.25 μM [1],HT-29 cell proliferation at 1.5 μM [1],effect on HT-29 cell proliferation with concentration [1],IC50 [1],inhibition of PKC-ζ (PKC-ζ [2]),inhibition of PKC-ι (PKC-ι [3]),toxicity to normal epithelial cells CCD18CO [4],"IC50 ([1]; Homo sapiens, 72 h)",inhibition of HT-29 cells ([1]; treatment over three days),level of pro-survival proteins [5],"effect on normal colon epithelial cells CCD18CO (cell number / toxicity) ([6]; 1.0-3.0 μM, three consecutive days, MTT)",percent inhibition of CCD18CO cell growth ([6]; after three hours of MTT incubation),effect on PKC-ι (PKC-ι [7]),level / phosphorylation of PKC-ζ (PKC-ζ [8])
"Nc1c(S(=O)(=O)O)cc2cc(S(=O)(=O)O)ccc2c1N [DNDA, 3,4, diamino-2,7-naphthalene disulfonic acid]",slight decrease in proliferation,dramatic decrease in proliferation,decrease colon cancer cell proliferation in a dose-dependent manner,~0.78 µM,about 80%,about 20%,,,,,,,,
"NC(=O)c1ncn(C2CC(COP(=O)(O)O)C(O)C2O)c1N (stereo not drawn) [ICA-1, [4-(5-amino-4-carbamoylimidazol-1-yl)-2,3-dihydroxycyclopentyl] methyl dihydrogen phosphate]",slight increase in cell proliferation,dramatic decrease in cell proliferation,decrease colon cancer cell proliferation in a dose-dependent manner,~0.95 µM,,,not toxic,,,,,,,
"O=S(=O)(O)c1cc(O)c2c(S(=O)(=O)O)cc(S(=O)(=O)O)cc2c1 [ζ-Stat, 8-hydroxy-1,3,6-naphthalenetrisulfonic acid]",,dramatic decrease in cell proliferation,inhibits colon cancer cell proliferation in a dose-dependent manner,,,,not toxic,~1.4 µM,about 60%,decreases the level of pro-survival proteins,not toxic; also recorded: did not change,less than 10%,without affecting PKC-ι; also recorded: specifically inhibits PKC-ζ not PKC-ι,decrease the levels of total and phosphorylated PKC-ζ; also recorded: selective decrease in the phosphorylation of PKC-ζ
